Laboratory results reported in the NIST ThermoML archive (doi:10.1016/j.jct.2014.02.016).
Numbers after ± are expanded uncertainties.

Columns and labels:
[1] = heat capacity at constant pressure per volume; xn = mol fraction of the nth substance listed; conditions: 100 kPa, Liquid, DSC Calorimetry, x1 = 0.284
[2] = refractive index (other wavelength) (dimensionless); xn = mol fraction of the nth substance listed; conditions: 100 kPa, Liquid, Wavelength=632.8 nm, Angle minimization by sell rotation

CCCCCCCCCCC [undecane] + COC(=O)OC
[1]
Conditions	heat capacity [J/K/m3]
293.3 K	2050000 ± 110000
293.4 K	2009000 ± 110000
293.5 K	1982000 ± 110000
293.6 K	1953000 ± 100000
293.8 K	1939000 ± 100000
294 K	1925000 ± 100000
294.5 K	1897000 ± 100000
296 K	1878000 ± 100000
297 K	1848000 ± 99000
298 K	1846000 ± 99000
299 K	1832000 ± 98000
300 K	1824000 ± 97000
301 K	1822000 ± 97000
302 K	1818000 ± 97000
303 K	1818000 ± 97000
304 K	1814000 ± 97000
305 K	1810000 ± 97000
306 K	1806000 ± 96000
307 K	1805000 ± 96000
308 K	1803000 ± 96000
309 K	1801000 ± 96000
310 K	1800000 ± 96000
311 K	1797000 ± 96000
312 K	1796000 ± 96000
313 K	1795000 ± 96000
314 K	1793000 ± 96000
315 K	1792000 ± 96000
316 K	1790000 ± 96000
317 K	1789000 ± 96000
318 K	1788000 ± 95000
319 K	1787000 ± 95000
320.01 K	1787000 ± 95000
321 K	1786000 ± 95000
322 K	1785000 ± 95000
323 K	1784000 ± 95000
324.01 K	1783000 ± 95000
325 K	1782000 ± 95000
326 K	1782000 ± 95000
327 K	1780000 ± 95000
328.01 K	1780000 ± 95000
329 K	1780000 ± 95000
330 K	1779000 ± 95000
331 K	1778000 ± 95000
332 K	1778000 ± 95000
333 K	1777000 ± 95000

[2]
Conditions	refractive index
283.01 K, x1 = 0.087	1.3791 ± 0.0003
283.01 K, x1 = 0.62	1.4074 ± 0.0003
284.23 K, x1 = 0.094	1.3791 ± 0.0003
284.23 K, x1 = 0.602	1.4062 ± 0.0003
285.47 K, x1 = 0.102	1.3791 ± 0.0003
285.47 K, x1 = 0.58	1.4048 ± 0.0003
286.63 K, x1 = 0.11	1.3791 ± 0.0003
286.63 K, x1 = 0.56	1.4035 ± 0.0003
287.73 K, x1 = 0.118	1.3792 ± 0.0003
287.73 K, x1 = 0.539	1.4022 ± 0.0003
288.79 K, x1 = 0.129	1.3795 ± 0.0003
288.79 K, x1 = 0.515	1.4008 ± 0.0003
289.51 K, x1 = 0.137	1.3797 ± 0.0003
289.51 K, x1 = 0.496	1.3997 ± 0.0003
290.19 K, x1 = 0.147	1.3801 ± 0.0003
290.19 K, x1 = 0.475	1.3985 ± 0.0003
290.77 K, x1 = 0.157	1.3805 ± 0.0003
290.77 K, x1 = 0.46	1.3976 ± 0.0003
291.19 K, x1 = 0.165	1.3809 ± 0.0003
291.19 K, x1 = 0.442	1.3966 ± 0.0003
291.49 K, x1 = 0.173	1.3813 ± 0.0003
291.49 K, x1 = 0.431	1.396 ± 0.0003
291.71 K, x1 = 0.179	1.3816 ± 0.0003
291.71 K, x1 = 0.418	1.3953 ± 0.0003
291.9 K, x1 = 0.186	1.382 ± 0.0003
291.9 K, x1 = 0.409	1.3948 ± 0.0003
292.05 K, x1 = 0.193	1.3824 ± 0.0003
292.05 K, x1 = 0.398	1.3942 ± 0.0003
292.17 K, x1 = 0.198	1.3827 ± 0.0003
292.17 K, x1 = 0.391	1.3938 ± 0.0003
292.25 K, x1 = 0.202	1.3829 ± 0.0003
292.25 K, x1 = 0.383	1.3934 ± 0.0003
292.33 K, x1 = 0.207	1.3832 ± 0.0003
292.33 K, x1 = 0.376	1.393 ± 0.0003
292.39 K, x1 = 0.212	1.3835 ± 0.0003
292.39 K, x1 = 0.371	1.3927 ± 0.0003
292.44 K, x1 = 0.217	1.3838 ± 0.0003
292.44 K, x1 = 0.365	1.3924 ± 0.0003
292.49 K, x1 = 0.22	1.384 ± 0.0003
292.49 K, x1 = 0.36	1.3921 ± 0.0003
292.52 K, x1 = 0.225	1.3843 ± 0.0003
292.52 K, x1 = 0.352	1.3917 ± 0.0003
292.56 K, x1 = 0.228	1.3845 ± 0.0003
292.56 K, x1 = 0.349	1.3915 ± 0.0003
292.59 K, x1 = 0.235	1.3849 ± 0.0003
292.59 K, x1 = 0.341	1.3911 ± 0.0003
292.62 K, x1 = 0.238	1.3851 ± 0.0003
292.62 K, x1 = 0.336	1.3908 ± 0.0003
292.64 K, x1 = 0.243	1.3854 ± 0.0003
292.64 K, x1 = 0.331	1.3905 ± 0.0003
292.65 K, x1 = 0.246	1.3856 ± 0.0003
292.65 K, x1 = 0.327	1.3903 ± 0.0003
292.66 K, x1 = 0.251	1.3859 ± 0.0003
292.66 K, x1 = 0.322	1.39 ± 0.0003
292.67 K, x1 = 0.255	1.3861 ± 0.0003
292.67 K, x1 = 0.258	1.3863 ± 0.0003
292.67 K, x1 = 0.314	1.3896 ± 0.0003
292.67 K, x1 = 0.318	1.3898 ± 0.0003
292.68 K, x1 = 0.261	1.3865 ± 0.0003
292.68 K, x1 = 0.263	1.3866 ± 0.0003
292.68 K, x1 = 0.266	1.3868 ± 0.0003
292.68 K, x1 = 0.304	1.389 ± 0.0003
292.68 K, x1 = 0.307	1.3892 ± 0.0003
292.68 K, x1 = 0.311	1.3894 ± 0.0003
303.3 K, x1 = 0.102	1.3708 ± 0.0003
303.3 K, x1 = 0.2	1.3776 ± 0.0003
303.3 K, x1 = 0.299	1.3835 ± 0.0003
303.3 K, x1 = 0.388	1.3891 ± 0.0003
303.3 K, x1 = 0.5	1.3932 ± 0.0003
303.3 K, x1 = 0.586	1.3967 ± 0.0003
303.3 K, x1 = 0.701	1.4014 ± 0.0003
303.3 K, x1 = 0.793	1.4041 ± 0.0003
303.3 K, x1 = 0.905	1.4085 ± 0.0003
